# Reference: patent publication US4545991A, “Difficidin and derivative antibacterials” (Merck & Co., Inc., priority 1983, dated 1985)
# Assays:
# Enterobacter = test: MIC, standard in vitro assay (Table I); type: cell-based; conditions: 10^6 CFU; 3 strains tested
# Source text: (§1) Using standard in vitro assay techniques, minimal inhibitory concentrations (MIC) have been determined for difficidin and oxydifficidin against a number of bacteria.
# Klebsiella pneumoniae = test: MIC, standard in vitro assay (Table I); type: cell-based; conditions: 10^6 CFU; 2 strains tested
# Source text: as §1
# Proteus = test: MIC, standard in vitro assay (Table I); type: cell-based; conditions: for MIC Range: 10^6 CFU, 3 strains tested
# Source text: as §1
# Salmonella typhimurium = test: MIC, standard in vitro assay (Table I); type: cell-based; conditions: for MIC Range: 10^6 CFU, 1 strain tested
# Source text: as §1
# Serratia marcescens = test: MIC, standard in vitro assay (Table I); type: cell-based; conditions: for MIC Range: 10^6 CFU, 1 strain tested
# Source text: as §1
# Staphylococcus aureus = test: MIC, standard in vitro assay (Table I); type: cell-based; conditions: for MIC Range: 10^6 CFU, 3 strains tested
# Source text: as §1
# Streptococcus faecalis = test: MIC, standard in vitro assay (Table I); type: cell-based; conditions: 10^6 CFU; 1 strain tested
# Source text: as §1
# E. coli DC 2 = test: MIC, in vitro agar dilution assay, aerobic bacteria (Table II); type: cell-based; conditions: E. coli DC 2; 10^6 CFU per spot
# Ent. cloacae P99^+ = test: as above; type: cell-based; conditions: Ent. cloacae P99^+; 10^6 CFU per spot
# Ent. cloacae P99^- = test: as above; type: cell-based; conditions: Ent. cloacae P99^-; 10^6 CFU per spot
# K. pneumoniae Kl^+ = test: as above; type: cell-based; conditions: 10^6 CFU per spot
# Prot. vulgaris = test: as above; type: cell-based; conditions: 10^6 CFU per spot
# Eubacterium limosum = test: MIC, in vitro agar dilution assay, anaerobic bacteria (Table III); type: cell-based; conditions: 10^6 CFU per spot
# [1] = test system: Clostridium perfringens NCCLS control strain; test: microbe, parasite or virus in culture; type: cell-based; conditions: Clostridium perfringens NCCLS control strain; 10^6 CFU per spot
# [2] = test system: C. difficile Clind^r, Fox^r; test: MIC, in vitro agar dilution assay, anaerobic bacteria (Table III); type: cell-based; conditions: 10^6 CFU per spot
# C. difficile Fox^r = test: as above; type: cell-based; conditions: C. difficile Fox^r; 10^6 CFU per spot
# [3] = test system: Bifidobacterium dentium Fox^r; test: as above; type: cell-based; conditions: Bifidobacterium dentium Fox^r; 10^6 CFU per spot
# B. fragilis Pen^r = test: as above; type: cell-based; conditions: 10^6 CFU per spot
# [4] = test system: Fusobacterium mortiferum Fox^r; test: as above; type: cell-based; conditions: 10^6 CFU per spot
# solubility = type: physicochemical; conditions: water, lower alcohols such as methanol and ethanol
# pH of aqueous solution = type: physicochemical
# aerobic microorganisms = test: antibacterial activity against aerobic microorganisms, summary; type: cell-based; conditions: such as Pseudomonas aeruginosa and Staphyloccoccus aureus
# [5] = decomposition during lyophilization; type: physicochemical; conditions: lyophilization of (IV) to (V)
# Description: There is evidence that from 10-15% decomposition of oxydifficidin may have occurred during lyophilization of (IV) to (V). Based on the lyophilized weight of (V) and the UV analysis of (IV), A1 cm^1% (275 nm)--438 is calculated.
SMILES,MIC Range (Enterobacter) [µg/mL],MIC Range (Klebsiella pneumoniae) [µg/mL],MIC Range (Proteus) [µg/mL],MIC Range (Salmonella typhimurium) [µg/mL],MIC Range (Serratia marcescens) [µg/mL],MIC Range (Staphylococcus aureus) [µg/mL],MIC Range (Streptococcus faecalis) [µg/mL],MIC (E. coli DC 2) [µg/mL],MIC (Ent. cloacae P99^+) [µg/mL],MIC (Ent. cloacae P99^-) [µg/mL],MIC (K. pneumoniae Kl^+) [µg/mL],MIC (Prot. vulgaris) [µg/mL],MIC (Eubacterium limosum) [µg/mL],MIC [1] [µg/mL],MIC [2] [µg/mL],MIC (C. difficile Fox^r) [µg/mL],MIC (B. fragilis Pen^r) [µg/mL],MIC [4] [µg/mL],further results
"C=CC=C(C)CCC1CC=CC=C(C)C(OP(=O)(O)O)CCCC=CC=CC=CCC(C)C(=C)CC(=O)O1 (stereo not drawn) [Difficidin, difficidin]",8 to 16,8,0.5 to 8,8,4,8 to 16,128,8.0,16.0,8.0,8.0,0.5,> 128,> 128,0.125,0.06,0.125,0.03,"effectiveness of difficidin relative to oxydifficidin (Proteus; Proteus, in most cases): four times more effective; effectiveness of difficidin relative to oxydifficidin (Salmonella typhimurium; Salmonella typhimurium, in most cases): four times more effective; effectiveness of difficidin relative to oxydifficidin (Serratia marcescens; Serratia marcescens, in most cases): four times more effective; effectiveness of difficidin relative to oxydifficidin (Staphylococcus aureus; S. aureus, in most cases): four times more effective; MIC [3]: 32 µg/mL; solubility (solubility): soluble in water, lower alcohols such as methanol and ethanol; pH of 0.1% by weight aqueous solution (pH of aqueous solution): 6.9; potency against aerobic microorganisms relative to oxydifficidin (aerobic microorganisms): more potent than oxydifficidin"
"C=CC=C(C)CCC1CC=CC=C(C)C(OP(=O)(O)O)CCCC=CC=CC=CC(O)C(C)C(=C)CC(=O)O1 (stereo not drawn) [Oxydifficidin, oxydifficidin]",32 to 64,8,2 to 32,32,16,32 to 128,128,4.0,32.0,64.0,8.0,8.0,> 128,> 128,0.06,0.06,0.125,0.125,decomposition during lyophilization [5]: 10-15%
